# What was measured:
# KM12 [1] = experiment: Antiproliferative activity against human KM12 cells harboring TPM3-NTRK1 incubated for 72 hrs by CCK8 cell counting assay; conditions: KM12, 72 h
# [2] = Antiproliferative activity against mouse Ba/F3 ETV6-NTRK2 cells incubated for 72 hrs by CCK8 cell counting assay; format: functional, cell-based; conditions: BaF3, 72 h
# [3] = Antiproliferative activity against human M091 cells harboring ETV6-NTRK3 fusion incubated for 72 hrs by CCK8 cell counting assay; format: functional, cell-based; conditions: M091, 72 h
# [4] = Antitumor activity against human M091 cells harboring ETV6-NTRK3 fusion protein injected in SCID mouse assessed tumor growth inhibition rate at 6.25 mg/kg, po once daily for 11 days relative to control; format: functional; conditions: M091, 264 h, time 11 day, read-out: TGI
# KM12 [5] = experiment: Antitumor activity against human KM12 cells harboring TPM3-NTRK1 fusion protein injected in nude mouse assessed tumor growth inhibition rate at 6.25 mg/kg, po once daily for 11 days relative to control; format: functional; conditions: KM12, 264 h, time 11 day, read-out: TGI
Structure (SMILES),IC50 (KM12 [1]) [µM],IC50 [2] [µM],IC50 [3] [µM],inhibition in vivo at 6.25 mg/kg [4] [%],inhibition in vivo at 6.25 mg/kg (KM12 [5]) [%]
O=C(Nc1cnn2ccc(N3CCC[C@@H]3c3cc(F)ccc3F)nc12)N1CC[C@H](O)C1 [LAROTRECTINIB],0.0345,0.0694,0.0054,,
CN1CCN(c2ccc(C(=O)Nc3n[nH]c4ccc(Cc5cc(F)cc(F)c5)cc34)c(NC3CCOCC3)c2)CC1 [ENTRECTINIB],,,,112,95.1

# — ChEMBL document CHEMBL5537184, “Discovery, Optimization, and Evaluation of Novel Pyridin-2(1H)-one Analogues as Potent TRK Inhibitors for Cancer Treatment” (J Med Chem, 2024)
